# Reference: patent US20250361217A1, “FATTY ACID COMPOUNDS” (University of Pittsburgh - Of the Commonwealth System of …, priority 2022, published 2025)
# Target: T1, ACLY (Mus musculus, UniProt Q91V92)
# T1 construct: Proteins were extracted from the liver powder (50 mg) with 1 mL of phosphate-buffered saline; from tissue; host or cells: liver of male C57BL/6J mice (HFD, treated in vivo with vehicle or 11U3-2M)
# T1 sequence (Q91V92 1-1091): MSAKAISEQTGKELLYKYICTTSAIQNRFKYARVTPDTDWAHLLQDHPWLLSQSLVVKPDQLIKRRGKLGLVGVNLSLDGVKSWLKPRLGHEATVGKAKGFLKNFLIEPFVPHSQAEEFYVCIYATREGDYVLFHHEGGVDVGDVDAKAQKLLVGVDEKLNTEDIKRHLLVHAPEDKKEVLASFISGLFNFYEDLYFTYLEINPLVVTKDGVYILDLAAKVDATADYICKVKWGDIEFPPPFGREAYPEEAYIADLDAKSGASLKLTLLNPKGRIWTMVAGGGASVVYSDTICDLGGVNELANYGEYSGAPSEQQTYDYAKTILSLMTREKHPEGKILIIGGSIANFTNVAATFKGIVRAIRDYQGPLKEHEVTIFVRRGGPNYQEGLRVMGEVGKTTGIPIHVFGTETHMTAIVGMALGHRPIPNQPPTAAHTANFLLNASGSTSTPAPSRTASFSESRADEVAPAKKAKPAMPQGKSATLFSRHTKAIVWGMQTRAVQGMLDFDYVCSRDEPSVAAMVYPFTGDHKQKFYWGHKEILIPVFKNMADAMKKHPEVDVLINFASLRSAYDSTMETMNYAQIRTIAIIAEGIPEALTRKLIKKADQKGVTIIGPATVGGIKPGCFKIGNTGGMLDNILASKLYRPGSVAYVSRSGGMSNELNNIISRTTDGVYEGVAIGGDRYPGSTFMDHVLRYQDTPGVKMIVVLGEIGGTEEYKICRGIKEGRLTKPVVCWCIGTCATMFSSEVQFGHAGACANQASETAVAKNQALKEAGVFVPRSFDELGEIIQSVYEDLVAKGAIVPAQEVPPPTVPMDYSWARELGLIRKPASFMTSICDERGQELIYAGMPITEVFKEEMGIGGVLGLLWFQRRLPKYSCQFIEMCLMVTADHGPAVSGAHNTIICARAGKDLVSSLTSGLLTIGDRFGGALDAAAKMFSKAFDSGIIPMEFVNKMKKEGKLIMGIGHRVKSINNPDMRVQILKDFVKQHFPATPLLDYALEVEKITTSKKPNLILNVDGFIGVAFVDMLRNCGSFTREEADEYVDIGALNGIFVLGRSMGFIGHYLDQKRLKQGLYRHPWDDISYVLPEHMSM
# Assay: Thermal shift assay of liver proteins, ACLY
# Format: binding, mice
# Procedure: The liver samples (50 mg) were homogenized and vortexed in ice-cold RIPA buffer containing phosphatase (Fisher Scientific, #PIA32957) and protease (Fisher Scientific, #PIA32953) inhibitor cocktails. Protein concentration was determined using a […] (Pierce). Protein lysates were mixed with LDS Sample Buffer (1:4) and heated for 2 min at 95° C. The lysates were then loaded and electrophoresed on a 10% Tris-Glycine eXtended (BioRad, Criterion #5671034). The proteins were electrophoretically transferred to a PVDF membrane (BioRad, #1620177), and the transfer was confirmed by staining the membrane with 0.1% Ponceau S solution (Sigma-Aldrich, #6226-79-5). The membrane was then blocked for 90 min at RT with 5% nonfat dry milk (LabScientific) or 5% BSA (MilliporeSigma) in TBS-T (tris buffered saline+0.1% Tween 20 [Thermo Fisher Scientific]). […] Quantitative densitometric analysis was performed using Image Lab software (Bio-Rad).
# Thermal Shift Assay Proteins were extracted from the liver powder (50 mg) with 1 mL of phosphate-buffered saline (PBS—Gibco, Paisley, UK) containing phosphatase (Fisher Scientific, #PIA32957) and protease (Fisher Scientific, #PIA32953) inhibitors. […] The Supernatants were transferred to new tubes and analyzed by western blot as described above.
smiles,measurement,setting,value
"CCCc1ccc(CCCCCCCCCC(C)(C)C(=O)O)o1 [11U3-2M, 2,2-Dimethyl-11-(5-propylfuran-2-yl)undecanoic acid]",ACLY thermal stability,"full cohorts, HFD+11U3-2M, higher temperature (52, 53.5, 55° C.)",greatly increased
same,ACLY thermal stability compared to veh,"one mouse per group, 52, 53.5 and 55° C.",higher stability
